According to patent US10287311B2, “Modified fluorinated nucleoside analogues” (priority 2003, dated 2019):
Like-named read-outs stand apart in the source and are kept apart here.

Assays:
West Nile virus = assay: Antiviral activity, West Nile virus in Vero cells; assay type: cell-based; conditions: for EC50: West Nile virus, West Nile, Vero
[1] = Cytotoxicity assay (MTS), HepG2; assay type: cell-based; conditions: human, HepG2 cells
Protocol: (§1) 50 μl of 2× drug dilutions were added per well in a 96 well plate. Final concentrations of drug ranged from 1 to 100 μM. A “no drug” (media only) control was used to determine the minimum absorbance values and a “cells+media only” control was used for maximum absorbance value. A solvent control was also used. Cells were then added (PBM: 5×10^4 cells/well; CEM: 2.5×10^3 cells/well; Vero, HepG2, Huh-7, and Clone A: 5×10^3 cells/well) and incubated at 37° C. in a humidified 5% CO2 atmosphere for 3-5 days (PBM: 5 days; CEM: 3 days, all others: 4 days). After incubation, 20 μl of MTS dye was added from Cell Titer Aqueous One Solution Cell Proliferation Assay to each well and the plate was re-incubated for 2-4 hours. The absorbance (490 nm) was then read on an ELISA plate reader using the media only/no cell wells as blanks. Percent inhibition was found and used to calculate the CC50.

in vitro [2] = conditions: African green monkey
Coronavirus 229E = assay: Antiviral activity, Coronavirus 229E; assay type: cell-based
[3] = Cytotoxicity assay (MTS), all cell lines tested; assay type: cell-based; conditions: human, bovine, African green monkey, Clone A, Huh7, HepG2, MDBK, PBM, CEM, Vero and MRC-5 cells; summary in text over all cell lines
Protocol: as §1
In contrast is the relative toxicity of 2′-C-methyladenosine.

Influenza B = assay: microbe, parasite or virus in culture; assay type: cell-based; conditions: MDCK
RSV = assay: Antiviral activity, RSV; assay type: cell-based; conditions: human respiratory syncytial virus
[4] = Cytotoxicity assay (MTS), CloneA; assay type: cell-based; conditions: human, Clone A cells
Protocol: as §1

SARSCoV = assay: organism not typed; assay type: cell-based; conditions: Vero
Rhinovirus Type 2 = assay: Antiviral activity, Rhinovirus Type 2 in KB cells; assay type: cell-based; conditions: for EC50: Enterovirus, Rhinovirus Type 2, KB
[5] = tested on: Human bone marrow cells, CFU-GM; assay: Bone marrow toxicity assay, CFU-GM; assay type: cell-based; conditions: CFU-GM
Protocol: The culture assays for CFU-GM and BFU-E are performed using a bilayer soft agar or methylcellulose method. Drugs are diluted in tissue culture medium and filtered. After 14 to 18 days at 37° C. in a humidified atmosphere of 5% CO2 in air, colonies of greater than 50 cells are counted using an inverted microscope. The results are presented as the percent inhibition of colony formation in the presence of drug compared to solvent control cultures.

[6] = Cytotoxicity assay (MTS), Huh7; assay type: cell-based; conditions: human, Huh7 cells
Protocol: as §1

[7] = Cytotoxicity (CPE, Neutral Red) in MDCK cells of the antiviral tests; conditions: dog, MDCK cells
MDCK cells = assay: as above; conditions: MDCK, Influenza B test
in vitro [8] = conditions: human
HIV = assay: microbe, parasite or virus in culture; assay type: cell-based
HepG2 cells = assay: Mitochondria toxicity assay; assay type: cell-based; conditions: 7 days
Protocol: Fifty microliters of 2× drug dilutions were added per well in a 96 well plate. […] Ribosomal DNA levels were used to determine specific toxicity to mitochondria or generally cytotoxicity. HepG2 cells (5,000 cells/well at 50 μl) were added to the plate. The plate was incubated at 37° C. in a humidified 5% CO2 atmosphere for 7 days. After incubation, the supernatant was removed and stored for lactic acid quantification, and total DNA was extracted from cells as described in the RNeasy 96 handbook (February 1999), pages 22-23. No DNA digestions were performed, therefore total RNA and DNA were extracted. The extracted DNA was amplified and the change in mitochondrial DNA and ribosomal DNA for each sample was determined. The fold difference in mitochondrial DNA normalized for ribosomal DNA relative to control was calculated. Lactic acid quantification was performed by the D-Lactic Acid/L-Lactic acid test kit (Boehringer Mannheim/R-Biopharm/Roche). The total amount of lactic acid produced for each sample was found as well as the fold change in lactic acid production (% of lactic acid/% of rDNA) as described in the manufacturers instructions.

[9] = Cytotoxicity assay (MTS), PBM; assay type: cell-based; conditions: PBM cells
Protocol: as §1

Dengue Type 2 = assay: Antiviral activity, Dengue Type 2 in Vero cells; assay type: cell-based, Dengue virus; conditions: for EC50: Dengue Type 2, Vero
BVDV = assay: (BVDV) yield reduction assay; assay type: cell-based, bovine viral diarrhea virus; conditions: for EC90: Bovine viral diarrhea virus isolates and strains
Protocol: Madin-Darby Bovine Kidney (MDBK) cells were grown in Dulbecco's modified eagle medium supplemented with 10% horse serum and 100 μg/ml penicillin-streptomycin. Cells were seeded in a 96-well plate at 5×10^3 cells/well and incubated for 72h at 37° C. in a humidified 5% CO2 atmosphere. Cells were infected with either cytopathic (NADL strain) or noncytopathic (SD-1 strain) BVDV at a virus dilution of 10-2 and incubated for 45 min. Cell monolayers were washed three times with medium. Fresh medium-containing test compounds in dose response concentrations or ribavirin, as a positive control, were added to cultures and medium containing no drug was added to the no-drug controls. After 72h incubation, supernatant was collected and viral RNA was extracted using the QIAmp Viral RNA Mini Kit (Qiagen, CA). Viral load was determined by Q-RT-PCR using primers specific for either NADL or SD-1 (1).

[10] = Neutral Red, read-out: EC50, NR

C[C@@]1(F)[C@H](O)[C@@H](CO)O[C@H]1n1ccc(N)nc1=O
activity against West Nile virus (in words) (West Nile virus): shows activity | EC50 (West Nile virus; NR = Neutral Red, read-out: EC50, NR): 12 µM | EC50 (West Nile virus; read-out: EC50, CPE): 32 µM | CC50 at 4 days [1]: 75 µM | CC50 (in vitro [2]): > 100 µM | activity on Corona virus (in words) (Coronavirus 229E): lack of activity | EC90 (Coronavirus 229E; Human coronavirus 229E): > 100 µM | CC50 [3]: 75 to 100 µM | EC50 (Influenza B; [10]): > 100 µM | EC50 (Influenza B; read-out: EC50, CPE): > 100 µM | EC90 (RSV): > 100 µM | CC50 at 4 days [4]: > 100 µM | EC50 (SARSCoV; read-out: EC50, CPE): > 100 µM | EC50 (SARSCoV; read-out: EC50, NR): > 100 µM | activity against Rhinovirus (in words) (Rhinovirus Type 2): shows activity | EC50 (Rhinovirus Type 2; [10]): 20 µM | EC50 (Rhinovirus Type 2; read-out: EC50, CPE): 25 µM | IC50 [5]: 93.9 µM | CC50 at 4 days [6]: > 100 µM | CC50 [7]: > 100 µM | CC50 (MDCK cells; read-out: CC50, CPE): > 100 µM | CC50 (MDCK cells; read-out: CC50, NR, Neutral Red): > 100 µM | CC50 (in vitro [8]): > 100 µM | activity on HIV (in words) (HIV): lack of activity | EC90 (HIV; Human immunodeficiency virus 1, HIV): > 100 µM | Lactic Acid Increase (HepG2 cells): No effect ≥ 33 μM | IC50 (HepG2 cells; Homo sapiens, 168 h, read-out: mtDNA Synthesis (IC50)): > 25 µM | CC50 at 5 days [9]: > 100 µM | deaths during the 30-day study (female Swiss mice; female Swiss mice, intraperitoneal, days 0 to 5, 0, 3.3, 10, 33, 100 mg/kg): no mice died | toxicity observed in the mice (female Swiss mice; mouse, in vivo): No significant toxicity | activity against Dengue virus (in words) (Dengue Type 2): shows activity | EC50 (Dengue Type 2; read-out: EC50, CPE): 55 µM | EC50 (Dengue Type 2; Dengue virus, Vero, Neutral Red, read-out: EC50, NR): > 100 µM | EC50 (Dengue Type 2; Dengue virus, Vero, read-out: EC50, CPE): 32 µM | CC50 (Vero cells; African green monkey): > 100 µM | CC50 (Vero cells; read-out: CC50, CPE, Vero, SARSCoV test): > 100 µM | CC50 (Vero cells; read-out: CC50, NR, Vero, SARSCoV test, Neutral Red): > 100 µM | CC50 (Vero cells; read-out: CC50, NR, Vero, VEE test, Neutral Red): > 100 µM | activity on HCV surrogate model BVDV (in words) (BVDV): lack of activity | EC90 (BVDV; BVDVcp): > 100 µM | EC90 (BVDV; BVDVncp): > 22 µM
